Source: patent US7939074B2, “Combination of an anti-EP-CAM antibody with a chemotherapeutic agent” (GlaxoSmithKline LLC, priority 1999, dated 2011)
Counter-ions that a name gives are not always drawn.

Tests used:
[1] = test system: Human colon adenocarcinoma (HT-29) tumours; test: Localization of 177Lu-labelled humanised 323/A3 IgG4cys-TMT to HT-29 xenografts after drug pre-treatment; assay type: in vivo, female CD-1 nude mice; settings: HT-29 xenograft mice; NAVELBINE 28 mg/kg i.v. or 5-FU 20 mg/kg i.p. on days 1 and 5; labelled antibody on day 6
Method: Human colon adenocarcinoma (HT-29) tumours were initiated by subcutaneous implantation into female CD-1 nude mice (Charles River). When the tumours reached 200-300 mg, animals were divided into groups of five. NAVELBINE® was injected intravenously at a dosage of 28 mg/kg on days 1 and 5. A control group was dosed with 5-fluorouracil (5-FU) intraperitoneally at 20 mg/kg on days 1 and 5. On day 6, humanised 323/A3 IgG4cys-TMT (a humanized monoclonal antibody chelator conjugate with specificity for the Ep-CAM antigen) was labelled with lutetium-177 and injected intravenously via the lateral tail vein. Each mouse received […]/2.09 μCi lutetium-177/0.2 ml injection. Blood, spleen, liver, lung, kidney, femur and tumour were harvested on days 1, 3 and 5 post-antibody for direct gamma counting (see FIG. 5 for results).

[2] = test system: Ep-CAM antigen on adenocarcinoma cells; test: Quantification of Ep-CAM antigen expression by binding of fluorescein-conjugated 323/A3 versus calibrated microbead standards; assay type: cell-based, human; settings: adenocarcinoma cells exposed to drugs, Example 2 / FIG. 2, versus media
Method: (§1) Populations of PC-3 prostatic adenocarcinoma cells were evaluated for distribution in G0/G1, S, and G2/M phases of the cell cycle as well as Ep-CAM expression. Cells were gently trypsinized and mechanically detached from the culture flasks and resuspended in calcium and magnesium-free phosphate-buffered saline containing bovine serum albumin and NaN3. Exactly 2×10^5 cells were stained with FITC-323/A3 murine IgG antibody or FITC-murine IgG (control). Cells were fixed with cold paraformaldehyde, then permeabilized for DNA staining with Tween-20. Cellular DNA was stained with propidium iodide and RNase A. Listmode data were acquired on a FACScan flow cytometer (Becton Dickinson Immunocytometry Systems) equipped with a 488 nm laser using Cell Fit software. Cell cycle analysis was done using SOBR modelling (where possible, otherwise manual estimations were employed) on Cell Fit. Ep-CAM antigen expression as detected by 323/A3 binding was evaluated separately using histogram analysis in WINLIST™ (Verity Software House).
(§2) Subconfluent cells were exposed to NAVELBINE® or TAXOL® for up to 24 hours, then washed and exposed to cisplatin or carboplatin, respectively, overnight. Cells were exposed to 5FU for 24 hours, and for 2-5 days to the interferons. Cells were washed and cultured for another 2-5 days prior to analysis for antigen expression and cell cycle status as described in Example 1. Antigen expression was quantified by comparison of the binding of fluorescein-conjugated 323/A3 to cultured cells with binding to calibrated microbead standards.
The expression of Ep-CAM antigen was quantified on a variety of adenocarcinoma cell lines as well as primary cultures of normal human cells. Cultured subconfluent cells were exposed sequentially to media, or to 30 nM NAVELBINE® followed by 5 μM cisplatin (NVB+CDDP), or to 80 nM TAXOL® followed by 100 μM carboplatin (TAX+CPBDA). Cells were washed with media and cultured for another 2-5 days prior to analysis for antigen expression as described in Examples 1 and 2.

[3] = test system: adenocarcinoma cells; test: Cell cycle analysis (propidium iodide flow cytometry) of drug-exposed adenocarcinoma cell lines; assay type: cell-based, human; settings: adenocarcinoma cell line; NVB 30 nM then CDDP 5 μM; TAX 80 nM then CPBDA 100 μM; interferons 100 U/ml; media control 6.3%
Method: as §1, §2

[4] = test system: HT29 adenocarcinoma cells; test: Binding of PANOREX to drug-treated HT29 cells; assay type: cell-based, human; settings: 15 minute incubation with PANOREX after culture with drugs
Method: as §2
The binding of PANOREX®, a related murine monoclonal antibody with specificity for the Ep-CAM antigen, was evaluated after a 15 minute incubation with HT29 adenocarcinoma cells which had been cultured with NAVELBINE® plus Cisplatin or with TAXOL® as previously described. A significant increase (34%) in antibody binding was seen on the cells treated with NAVELBINE® plus Cisplatin; 82% of these cells were arrested in S or G2/M cycle phase compared to 21% of the control cells.

[5] = test system: HT29 adenocarcinoma cells; test: Cell cycle arrest in drug-treated HT29 cells; assay type: cell-based, human; settings: HT29 cells cultured with drugs; control cells 21%
Method: as §1, with “Cellular DNA was stained with propidium iodide and RNase A. Listmode data were acquired on a FACScan flow cytometer (Becton Dickinson Immunocytometry Systems) equipped with a 488 nm laser using Cell Fit software. Cell cycle analysis was done using SOBR modelling (where possible, otherwise manual estimations were employed) on Cell Fit.” left out
Subconfluent cells were exposed to NAVELBINE® or TAXOL® for up to 24 hours, then washed and exposed to cisplatin or carboplatin, respectively, overnight. […] Antigen expression was quantified by comparison of the binding of fluorescein-conjugated 323/A3 to cultured cells with binding to calibrated microbead standards.
The binding of PANOREX®, a related murine monoclonal antibody with specificity for the Ep-CAM antigen, was evaluated after a 15 minute incubation with HT29 adenocarcinoma cells which had been cultured with NAVELBINE® plus Cisplatin or with TAXOL® as previously described. […]

Compound	antibody targeting to Ep-CAM positive tumours [1]	Ep-CAM antigen expression [2]	cells in S and G2/M phases combined [3]	increase in antibody binding (PANOREX) [4]	cells arrested in S or G2/M cycle phase [5]
CCC1=C[C@@H]2CN(C1)Cc1c([nH]c3ccccc13)[C@@](C(=O)OC)(c1cc3c(cc1OC)N(C)[C@H]1[C@@](O)(C(=O)OC)[C@H](OC(C)=O)[C@]4(CC)C=CCN5CC[C@]31[C@@H]54)C2 (relative stereo) [NAVELBINE®, 3′,4′-didehydro-4′-deoxy-C′-norvincaleukoblastine [R-(R*,R*)-2,3-dihydroxybutanedioate (1:2)(salt)]]	increases antibody targeting	–	–	–	–
O=c1[nH]cc(F)c(=O)[nH]1 [5FU, 5-Fluorouracil]	–	not significantly increased	7.9%	–	–
CC(=O)O[C@H]1C(=O)[C@@]2(C)[C@H]([C@H](OC(=O)c3ccccc3)[C@]3(O)C[C@H](OC(=O)[C@H](O)[C@@H](NC(=O)c4ccccc4)c4ccccc4)C(C)=C1C3(C)C)[C@]1(OC(C)=O)CO[C@@H]1C[C@@H]2O [TAXOL®, 5β,20 epoxy-1,2α,4,7β,10β,13α-hexahydroxytax-11-en-9-one 4,10-diacetate 2-benzoate 13-ester with (2R,3S)-N-benzoyl-3-phenylisoserine]	–	–	–	8%	57%
IFN-α	–	not significantly increased	12%	–	–
IFN-γ: interferon-gamma, used at 100 U/ml	–	not significantly increased	11.5%	–	–
